# Data taken from US11835523B2, “Assays for improving automated antimicrobial susceptibility testing accuracy” (priority 2018, dated 2023).
# How the values were obtained:
# Assay type in all cases: cell-based
# [1] = tested on: E. coli; test: Acidimetric carbapenemase assay, four wells, intact microbes (Example 2); set-up: key: Normalized activity = (Well1−Well2)−(Well3−Well4), pH indicator signal; details: 5 mg/mL imipenem solution added 1:1, 4 hours
# Text: (§1) In an exemplary embodiment, the assay comprises a minimum of 4 wells and utilizes a sample comprising intact microbes. The first well (Well1) comprises a medium such as a buffered saline solution or a nutrient broth, a carbapenem, ionic zinc, and a pH indictor. The second well (Well2) comprises the medium, a carbapenem, ionic zinc, a pH indictor, and a microbe sample comprising <1×10^8 CFU microbes. The third well (Well3) comprises the medium, ionic zinc, and a pH indictor. The fourth well (Well4) comprises the medium, ionic zinc, a pH indictor, and a microbe sample comprising <1×10^8 CFU microbes. The following formula can then be utilized to normalize the result: Normalized Activity=(Well1−Well2)−(Well3−Well4) [Formula 1]
# (§2) The above says that imipenem degradation is the change in pH (e.g. loss of signal) due to the presence of microbes less the change in pH (e.g. loss of signal) due to microbes in solution only.
# (§3) Example 2. Microbes were prepared by diluting colonies into saline to reach a McFarland value of 0.5, which was verified using a spectrophotometer. 100 μL of the microbe solution was added to each of 2 wells in a 96-well plate. 100 μL of saline was added to 2 separate wells on the plate. 100 μL of an imipenem solution containing 5 mg/mL imipenem, 0.1 mM ZnSO4, and 10 μM Fluorescein Na salt, pH 8, was added to one of the microbe-containing wells (Well2) and one of the saline wells (Well1). 100 μL of a negative control solution containing 0.1 mM ZnSO4, and 10 μM Fluorescein Na salt pH 7.5, was added to one of the microbe-containing wells (Well4) and one of the saline wells (Well3). Plates were incubated, shaking at 35° C. for 4 hours and fluorescence of the wells was read at […]. The values reported were calculated to determine the hydrolysis of imipenem by the microbes using Equation 1.
# [2] = tested on: E coli; test: Carbapenemase assay performed with dried reagents (Example 4); details: E coli ATCC 25922, known carbapenemase none, 300 μg/mL imipenem, 4 hours
# Text: as §1
# (§4) Example 4. Microbes were prepared by diluting colonies into saline to reach a McFarland value of 0.5, which was verified using a spectrophotometer. 100 μL of the microbe solution was added to each of 2 wells in a vacuum-dried 96-well plate (Well2, Well4). 100 μL of saline was added to 2 separate wells on the plate (Well1 and Well3). Following addition of microbial or saline solutions, the final concentrations of the contents in each well were: 300 μg/mL imipenem, 0.05 mM ZnSO4, and 10 μM Fluorescein Na Salt, pH 7.8, (Well1, Well2); only 0.05 mM ZnSO4 and 10 μM Fluorescein Na Salt, pH 7.8, were present in the third and four wells (Well3, Well4). Plates were incubated, shaking at 35° C. for 4 hours and fluorescence of the wells was read at Em=490/Ex=510. The values reported were calculated to determine the hydrolysis of imipenem by the microbes using Equation 1.
# [3] = tested on: K pneumoniae; test: as above; details: 4 hours
# Text: as §1, §4
# [4] = tested on: E coli; test: Carbapenemase assay at various concentrations of imipenem (Example 3); details: within 4 hours
# Text: as §1
# (§5) Example 3. Microbes were prepared by diluting colonies into saline to reach a McFarland value of 0.5, which was verified using a spectrophotometer. 25 μL of the microbe solution was added to each of 2 wells in a 384-well plate. 25 μL of saline was added to 2 separate wells on the plate. 25 μL of an imipenem solution containing imipenem, 0.1 mM ZnSO4, and 10 μm Fluorescein Na Salt, pH 8, was added to one of the microbe-containing wells (Well2) and one of the saline wells […]. 25 μL of a negative control solution containing 0.1 mM ZnSO4, and 10 μM Fluorescein Na Salt, pH 7.5, was added to one of the microbe containing wells (Well4) and one of the saline wells (Well3). Plates were incubated, shaking at 35° C. for 3 hours and fluorescence of the wells was read at Em=490/Ex=510. This organization of the assay was performed multiple times, varying the concentration of imipenem in solution. The assay was run with final imipenem concentrations of 50 μg/mL, 125 μg/mL, 250 μg/mL, 500 μg/mL, 1250 μg/mL, and 2500 μg/mL. The values reported were calculated to determine the hydrolysis of imipenem by the microbes using Equation 1.
# [5] = tested on: K pneumoniae; test: as above; set-up: unit not given here; details: within 4 hours
# Text: as §1, §5
# [6] = tested on: K. pneumoniae; test: Acidimetric carbapenemase assay, four wells, intact microbes (Example 2); details: 5 mg/mL imipenem solution added 1:1, 4 hours
# Text: as §1, §2, §3
smiles,measurement,setting,value
C[C@@H](O)[C@H]1C(=O)N2C(C(=O)O)=C(SCCN=CN)C[C@H]12 [imipenem],Carbapenemase Activity,"[1]; E. coli 25922, known carbapenemase none",−2106.4115
same,Carbapenemase Activity,"[1]; E. coli AEL18, known carbapenemase none",−1551.4885
same,Carbapenemase Activity,"[1]; E. coli AEL19, known carbapenemase none",−696.4825
same,Carbapenemase Activity,"[1]; E. coli AEL 20, known carbapenemase none",−882.3165
same,Carbapenemase Activity,"[1]; E. coli AR0346, known carbapenemase none, ESBL +",−2560.861
same,Carbapenemase Activity,"[1]; E. coli AR0348, known carbapenemase none",−2960.1665
same,Carbapenemase Activity,"[1]; E. coli AR0349, known carbapenemase none, ESBL +",−2861.008
same,Carbapenemase Activity,"[1]; E. coli CDC BIT 01, known carbapenemase KPC",8803.9255
same,Carbapenemase Activity,"[1]; E. coli CDC CNP 27, known carbapenemase none, ESBL +",−2401.2335
same,Carbapenemase Activity,"[1]; E. coli CDC CNP 38, known carbapenemase NDM",19534.8825
same,Carbapenemase Activity,"[1]; E. coli CDC CNP 54, known carbapenemase none, Amp beta lactamase",−1950.443
same,Carbapenemase Activity,"[1]; E. coli CDC CNP 73, known carbapenemase KPC",3480.1845
same,Carbapenemase Activity,"[1]; E. coli CDC CRE 03, known carbapenemase KPC-3",7149.729
same,Carbapenemase Activity,"[1]; E. coli CDC CRE 07, known carbapenemase NDM",27447.359
same,Carbapenemase Activity,"[1]; E. coli CDC CRE 17, known carbapenemase NDM",36400.9235
same,Carbapenemase Activity,"[1]; E. coli CDC CRE 26, known carbapenemase NDM",41326.61
same,Carbapenemase Activity,"[1]; E. coli SML 19, known carbapenemase none",−2540.0545
same,Carbapenemase Activity,"[1]; E. coli SML20, known carbapenemase none",−2734.3825
same,Carbapenemase Activity,"[1]; E. coli TRICORE 71, known carbapenemase none",−1138.2225
same,Carbapenemase Activity,"[1]; E. coli TRICORE 72, known carbapenemase none",−2554.797
same,Carbapenemase Activity,[2],−6116
same,Carbapenemase Activity,"[3]; K pneumoniae ATCC 700603, known carbapenemase none, 300 μg/mL imipenem",−2026
same,Carbapenemase Activity,"[3]; K pneumoniae ATCC BAA-1705, known carbapenemase KPC2, 300 μg/mL imipenem",19742
same,Carbapenemase Activity,"[3]; K pneumoniae ATCC BAA-2814, known carbapenemase KPC3, 300 μg/mL imipenem",18057
same,Carbapenemase Activity in various concentrations of imipenem,"[4]; E coli AR 69, known carbapenemase NDM, 50 μg/mL imipenem",1111
same,Carbapenemase Activity in various concentrations of imipenem,"[4]; E coli AR 69, known carbapenemase NDM, 125 μg/mL imipenem",3367
same,Carbapenemase Activity in various concentrations of imipenem,"[4]; E coli AR 69, known carbapenemase NDM, 250 μg/mL imipenem",2827
same,Carbapenemase Activity in various concentrations of imipenem,"[4]; E coli AR 69, known carbapenemase NDM, 500 μg/mL imipenem",2300.5
same,Carbapenemase Activity in various concentrations of imipenem,"[4]; E coli AR 69, known carbapenemase NDM, 1250 μg/mL imipenem",1908.5
same,Carbapenemase Activity in various concentrations of imipenem,"[4]; E coli AR 69, known carbapenemase NDM, 2500 μg/mL imipenem",1902.5
same,Carbapenemase Activity in various concentrations of imipenem,"[4]; E coli AR 114, known carbapenemase KPC3, 50 μg/mL imipenem",930.5
same,Carbapenemase Activity in various concentrations of imipenem,"[4]; E coli AR 114, known carbapenemase KPC3, 125 μg/mL imipenem",3793.5
same,Carbapenemase Activity in various concentrations of imipenem,"[4]; E coli AR 114, known carbapenemase KPC3, 250 μg/mL imipenem",3342.5
same,Carbapenemase Activity in various concentrations of imipenem,"[4]; E coli AR 114, known carbapenemase KPC3, 500 μg/mL imipenem",2784.5
same,Carbapenemase Activity in various concentrations of imipenem,"[4]; E coli AR 114, known carbapenemase KPC3, 1250 μg/mL imipenem",2173.5
same,Carbapenemase Activity in various concentrations of imipenem,"[4]; E coli AR 114, known carbapenemase KPC3, 2500 μg/mL imipenem",1825.5
same,Carbapenemase Activity in various concentrations of imipenem,"[4]; E coli ATCC 25922, known carbapenemase none, 50 μg/mL imipenem",−70.5
same,Carbapenemase Activity in various concentrations of imipenem,"[4]; E coli ATCC 25922, known carbapenemase none, 125 μg/mL imipenem",−522
same,Carbapenemase Activity in various concentrations of imipenem,"[4]; E coli ATCC 25922, known carbapenemase none, 250 μg/mL imipenem",−599.5
same,Carbapenemase Activity in various concentrations of imipenem,"[4]; E coli ATCC 25922, known carbapenemase none, 500 μg/mL imipenem",−558.5
same,Carbapenemase Activity in various concentrations of imipenem,"[4]; E coli ATCC 25922, known carbapenemase none, 1250 μg/mL imipenem",−463.5
same,Carbapenemase Activity in various concentrations of imipenem,"[4]; E coli ATCC 25922, known carbapenemase none, 2500 μg/mL imipenem",−282
same,Carbapenemase Activity in various concentrations of imipenem,"[5]; K pneumoniae AR 34, known carbapenemase IMP, 50 μg/mL imipenem",1034.5
same,Carbapenemase Activity in various concentrations of imipenem,"[5]; K pneumoniae AR 34, known carbapenemase IMP, 125 μg/mL imipenem",2776.5
same,Carbapenemase Activity in various concentrations of imipenem,"[5]; K pneumoniae AR 34, known carbapenemase IMP, 250 μg/mL imipenem",2456.5
same,Carbapenemase Activity in various concentrations of imipenem,"[5]; K pneumoniae AR 34, known carbapenemase IMP, 500 μg/mL imipenem",1807.5
same,Carbapenemase Activity in various concentrations of imipenem,"[5]; K pneumoniae AR 34, known carbapenemase IMP, 1250 μg/mL imipenem",1148
same,Carbapenemase Activity in various concentrations of imipenem,"[5]; K pneumoniae AR 34, known carbapenemase IMP, 2500 μg/mL imipenem",637.5
same,Carbapenemase Activity in various concentrations of imipenem,"[5]; K pneumoniae ATCC BAA-2342, known carbapenemase KPC, 50 μg/mL imipenem",1817
same,Carbapenemase Activity in various concentrations of imipenem,"[5]; K pneumoniae ATCC BAA-2342, known carbapenemase KPC, 125 μg/mL imipenem",4702.5
same,Carbapenemase Activity in various concentrations of imipenem,"[5]; K pneumoniae ATCC BAA-2342, known carbapenemase KPC, 250 μg/mL imipenem",4270.5
same,Carbapenemase Activity in various concentrations of imipenem,"[5]; K pneumoniae ATCC BAA-2342, known carbapenemase KPC, 500 μg/mL imipenem",3708
same,Carbapenemase Activity in various concentrations of imipenem,"[5]; K pneumoniae ATCC BAA-2342, known carbapenemase KPC, 1250 μg/mL imipenem",3251
same,Carbapenemase Activity in various concentrations of imipenem,"[5]; K pneumoniae ATCC BAA-2342, known carbapenemase KPC, 2500 μg/mL imipenem",3114.5
same,Carbapenemase Activity,"[6]; K. pneumoniae 700603, known carbapenemase none",−2659.8725
same,Carbapenemase Activity,"[6]; K. pneumoniae CDC CNP 03, known carbapenemase IMP",3662.106
same,Carbapenemase Activity,"[6]; K. pneumoniae CDC CNP 08, known carbapenemase OXA-181",1323.2385
same,Carbapenemase Activity,"[6]; K. pneumoniae CDC CNP 09, known carbapenemase VIM",2315.76
same,Carbapenemase Activity,"[6]; K. pneumoniae SML86, known carbapenemase none",−1861.1485
same,Carbapenemase Activity,"[6]; K. pneumoniae SML87, known carbapenemase none",−3075.4205
